# Measurements published in the NIST ThermoML archive (doi:10.1016/j.tca.2011.08.002).
# ± gives the expanded uncertainty stated by the source.
# What was measured:
# [1] = xn = mol fraction of the nth substance listed; conditions: 101 kPa, Liquid, Vibrating tube method
# [2] = refractive index (Na D-line) (dimensionless); xn = mol fraction of the nth substance listed; conditions: 101 kPa, Liquid, Standard Abbe refractometry
smiles,measurement,setting,value
C1CCC(NC2CCCCC2)CC1 [N-cyclohexylcyclohexanamine] + CC(C)(C)O,mass density,"[1]; 303.15 K, x2 = 0",904.144 ± 0.23 kg/m3
same,mass density,"[1]; 303.15 K, x2 = 0.1",899.362 ± 0.21 kg/m3
same,mass density,"[1]; 303.15 K, x2 = 0.199",893.462 ± 0.2 kg/m3
same,mass density,"[1]; 303.15 K, x2 = 0.289",887.197 ± 0.18 kg/m3
same,mass density,"[1]; 303.15 K, x2 = 0.4",878.023 ± 0.17 kg/m3
same,mass density,"[1]; 303.15 K, x2 = 0.485",869.715 ± 0.15 kg/m3
same,mass density,"[1]; 303.15 K, x2 = 0.6",856.549 ± 0.14 kg/m3
same,mass density,"[1]; 303.15 K, x2 = 0.698",843.066 ± 0.14 kg/m3
same,mass density,"[1]; 303.15 K, x2 = 0.801",825.644 ± 0.14 kg/m3
same,mass density,"[1]; 303.15 K, x2 = 0.849",815.948 ± 0.14 kg/m3
same,mass density,"[1]; 303.15 K, x2 = 0.9",804.266 ± 0.14 kg/m3
same,mass density,"[1]; 308.15 K, x2 = 0",900.372 ± 0.23 kg/m3
same,mass density,"[1]; 308.15 K, x2 = 0.1",895.452 ± 0.21 kg/m3
same,mass density,"[1]; 308.15 K, x2 = 0.199",889.433 ± 0.2 kg/m3
same,mass density,"[1]; 308.15 K, x2 = 0.289",883.071 ± 0.18 kg/m3
same,mass density,"[1]; 308.15 K, x2 = 0.4",873.772 ± 0.17 kg/m3
same,mass density,"[1]; 308.15 K, x2 = 0.485",865.366 ± 0.16 kg/m3
same,mass density,"[1]; 308.15 K, x2 = 0.6",852.061 ± 0.15 kg/m3
same,mass density,"[1]; 308.15 K, x2 = 0.698",838.44 ± 0.14 kg/m3
same,mass density,"[1]; 308.15 K, x2 = 0.801",820.845 ± 0.14 kg/m3
same,mass density,"[1]; 308.15 K, x2 = 0.849",811.061 ± 0.15 kg/m3
same,mass density,"[1]; 308.15 K, x2 = 0.9",799.276 ± 0.15 kg/m3
same,mass density,"[1]; 313.15 K, x2 = 0",896.608 ± 0.23 kg/m3
same,mass density,"[1]; 313.15 K, x2 = 0.1",891.533 ± 0.21 kg/m3
same,mass density,"[1]; 313.15 K, x2 = 0.199",885.384 ± 0.2 kg/m3
same,mass density,"[1]; 313.15 K, x2 = 0.289",878.917 ± 0.18 kg/m3
same,mass density,"[1]; 313.15 K, x2 = 0.4",869.49 ± 0.17 kg/m3
same,mass density,"[1]; 313.15 K, x2 = 0.485",860.973 ± 0.16 kg/m3
same,mass density,"[1]; 313.15 K, x2 = 0.6",847.522 ± 0.15 kg/m3
same,mass density,"[1]; 313.15 K, x2 = 0.698",833.751 ± 0.15 kg/m3
same,mass density,"[1]; 313.15 K, x2 = 0.801",815.974 ± 0.14 kg/m3
same,mass density,"[1]; 313.15 K, x2 = 0.849",806.1 ± 0.15 kg/m3
same,mass density,"[1]; 313.15 K, x2 = 0.9",794.206 ± 0.15 kg/m3
same,mass density,"[1]; 318.15 K, x2 = 0",892.847 ± 0.23 kg/m3
same,mass density,"[1]; 318.15 K, x2 = 0.1",887.611 ± 0.21 kg/m3
same,mass density,"[1]; 318.15 K, x2 = 0.199",881.326 ± 0.2 kg/m3
same,mass density,"[1]; 318.15 K, x2 = 0.289",874.742 ± 0.18 kg/m3
same,mass density,"[1]; 318.15 K, x2 = 0.4",865.171 ± 0.17 kg/m3
same,mass density,"[1]; 318.15 K, x2 = 0.485",856.539 ± 0.16 kg/m3
same,mass density,"[1]; 318.15 K, x2 = 0.6",842.928 ± 0.15 kg/m3
same,mass density,"[1]; 318.15 K, x2 = 0.698",829.003 ± 0.15 kg/m3
same,mass density,"[1]; 318.15 K, x2 = 0.801",811.036 ± 0.15 kg/m3
same,mass density,"[1]; 318.15 K, x2 = 0.849",801.065 ± 0.15 kg/m3
same,mass density,"[1]; 318.15 K, x2 = 0.9",789.061 ± 0.15 kg/m3
same,mass density,"[1]; 323.15 K, x2 = 0",889.089 ± 0.23 kg/m3
same,mass density,"[1]; 323.15 K, x2 = 0.1",883.684 ± 0.22 kg/m3
same,mass density,"[1]; 323.15 K, x2 = 0.199",877.25 ± 0.2 kg/m3
same,mass density,"[1]; 323.15 K, x2 = 0.289",870.544 ± 0.19 kg/m3
same,mass density,"[1]; 323.15 K, x2 = 0.4",860.821 ± 0.17 kg/m3
same,mass density,"[1]; 323.15 K, x2 = 0.485",852.063 ± 0.16 kg/m3
same,mass density,"[1]; 323.15 K, x2 = 0.6",838.281 ± 0.16 kg/m3
same,mass density,"[1]; 323.15 K, x2 = 0.698",824.196 ± 0.15 kg/m3
same,mass density,"[1]; 323.15 K, x2 = 0.801",806.029 ± 0.15 kg/m3
same,mass density,"[1]; 323.15 K, x2 = 0.849",795.955 ± 0.15 kg/m3
same,mass density,"[1]; 323.15 K, x2 = 0.9",783.837 ± 0.16 kg/m3
same,refractive index,"[2]; 303.15 K, x2 = 0",1.47978 ± 0.0004
same,refractive index,"[2]; 303.15 K, x2 = 0.1",1.47584 ± 0.00039
same,refractive index,"[2]; 303.15 K, x2 = 0.199",1.47107 ± 0.00039
same,refractive index,"[2]; 303.15 K, x2 = 0.289",1.46609 ± 0.00038
same,refractive index,"[2]; 303.15 K, x2 = 0.4",1.45896 ± 0.00038
same,refractive index,"[2]; 303.15 K, x2 = 0.485",1.45238 ± 0.00037
same,refractive index,"[2]; 303.15 K, x2 = 0.6",1.4423 ± 0.00037
same,refractive index,"[2]; 303.15 K, x2 = 0.698",1.43185 ± 0.00036
same,refractive index,"[2]; 303.15 K, x2 = 0.801",1.41877 ± 0.00036
same,refractive index,"[2]; 303.15 K, x2 = 0.849",1.41128 ± 0.00036
same,refractive index,"[2]; 303.15 K, x2 = 0.9",1.40275 ± 0.00036
same,refractive index,"[2]; 308.15 K, x2 = 0",1.47761 ± 0.0004
same,refractive index,"[2]; 308.15 K, x2 = 0.1",1.47362 ± 0.00039
same,refractive index,"[2]; 308.15 K, x2 = 0.199",1.46875 ± 0.00039
same,refractive index,"[2]; 308.15 K, x2 = 0.289",1.46373 ± 0.00038
same,refractive index,"[2]; 308.15 K, x2 = 0.4",1.4565 ± 0.00038
same,refractive index,"[2]; 308.15 K, x2 = 0.485",1.44994 ± 0.00037
same,refractive index,"[2]; 308.15 K, x2 = 0.6",1.43973 ± 0.00037
same,refractive index,"[2]; 308.15 K, x2 = 0.698",1.42927 ± 0.00036
same,refractive index,"[2]; 308.15 K, x2 = 0.801",1.41609 ± 0.00036
same,refractive index,"[2]; 308.15 K, x2 = 0.849",1.40862 ± 0.00036
same,refractive index,"[2]; 308.15 K, x2 = 0.9",1.40004 ± 0.00036
same,refractive index,"[2]; 313.15 K, x2 = 0",1.47562 ± 0.0004
same,refractive index,"[2]; 313.15 K, x2 = 0.1",1.47142 ± 0.00039
same,refractive index,"[2]; 313.15 K, x2 = 0.199",1.46639 ± 0.00039
same,refractive index,"[2]; 313.15 K, x2 = 0.289",1.46133 ± 0.00038
same,refractive index,"[2]; 313.15 K, x2 = 0.4",1.45403 ± 0.00038
same,refractive index,"[2]; 313.15 K, x2 = 0.485",1.44742 ± 0.00037
same,refractive index,"[2]; 313.15 K, x2 = 0.6",1.43717 ± 0.00037
same,refractive index,"[2]; 313.15 K, x2 = 0.698",1.42663 ± 0.00036
same,refractive index,"[2]; 313.15 K, x2 = 0.801",1.41336 ± 0.00036
same,refractive index,"[2]; 313.15 K, x2 = 0.849",1.40587 ± 0.00036
same,refractive index,"[2]; 313.15 K, x2 = 0.9",1.39727 ± 0.00036
same,refractive index,"[2]; 318.15 K, x2 = 0",1.47347 ± 0.0004
same,refractive index,"[2]; 318.15 K, x2 = 0.1",1.46916 ± 0.00039
same,refractive index,"[2]; 318.15 K, x2 = 0.199",1.4641 ± 0.00039
same,refractive index,"[2]; 318.15 K, x2 = 0.289",1.45899 ± 0.00038
same,refractive index,"[2]; 318.15 K, x2 = 0.4",1.45163 ± 0.00038
same,refractive index,"[2]; 318.15 K, x2 = 0.485",1.44498 ± 0.00037
same,refractive index,"[2]; 318.15 K, x2 = 0.6",1.43461 ± 0.00037
same,refractive index,"[2]; 318.15 K, x2 = 0.698",1.42401 ± 0.00036
same,refractive index,"[2]; 318.15 K, x2 = 0.801",1.41073 ± 0.00036
same,refractive index,"[2]; 318.15 K, x2 = 0.849",1.40316 ± 0.00036
same,refractive index,"[2]; 318.15 K, x2 = 0.9",1.39449 ± 0.00036
same,refractive index,"[2]; 323.15 K, x2 = 0",1.47134 ± 0.0004
same,refractive index,"[2]; 323.15 K, x2 = 0.1",1.467 ± 0.00039
same,refractive index,"[2]; 323.15 K, x2 = 0.199",1.46188 ± 0.00039
same,refractive index,"[2]; 323.15 K, x2 = 0.289",1.45674 ± 0.00038
same,refractive index,"[2]; 323.15 K, x2 = 0.4",1.44932 ± 0.00038
same,refractive index,"[2]; 323.15 K, x2 = 0.485",1.44272 ± 0.00037
same,refractive index,"[2]; 323.15 K, x2 = 0.6",1.43215 ± 0.00037
same,refractive index,"[2]; 323.15 K, x2 = 0.698",1.42155 ± 0.00036
same,refractive index,"[2]; 323.15 K, x2 = 0.801",1.4081 ± 0.00036
same,refractive index,"[2]; 323.15 K, x2 = 0.849",1.40048 ± 0.00036
same,refractive index,"[2]; 323.15 K, x2 = 0.9",1.39193 ± 0.00036
